Results on seven compounds are retold here after PubChem BioAssay (NCI).

What all share (experiment): NCI-60 cell line screen, 48 h
The subject of experiment [1] is ACHN renal.
Experiment [2] deals with BT-549 breast.
Experiment [3] deals with HCT-116 colon.
For experiment [4], the system named is M14 melanoma.
Experiment [5] relates to RPMI-8226 leukemia.
Experiment [6] has as its system SF-295 CNS.
Experiment [7] has as its system SF-539 CNS.
The subject of experiment [8] is SK-MEL-2 melanoma.
In experiment [9] the test system is SN12C renal.
Experiment [10] has as its system SNB-19 CNS.
Experiment [11] concerns UACC-62 melanoma.

Molecules are shown by their SMILES.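 Following 48 hours of exposure in 96-well plates, responses at five concentrations were used to interpolate endpoints linearly. TGI: total growth inhibition.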

Consider `Cc1ccc(N=Nc2c(O)ccc3cc(S(=O)(=O)O)ccc23)cc1`, for which the TGI in experiment [1], in [2], in experiment [3], in [4], in experiment [5] and in experiment [6] was over 100 µM in each case. The TGI in experiment [7], in experiment [8], in experiment [9], in [10] and in experiment [11] was over 100 µM in each case.

Turning to `Cc1cc2c(cc1C)C(=O)C1(C2)Cc2cc3c(cc2C1=O)CCC3` (configuration not stated), the TGI in experiment [1], in experiment [2], in experiment [3], in experiment [4], in experiment [5] and in experiment [6] was over 100 µM in each case. Further, the TGI is 91.9 µM in experiment [7]; over 100 µM in experiment [8]; over 100 µM in experiment [9]; over 100 µM in experiment [10]; over 100 µM in [11].

Take `N#Cc1cc(Sc2ccc(N)c(C#N)c2)ccc1N`: the TGI is over 100 µM in experiment [1]; over 100 µM in experiment [2]; 34.4 µM in experiment [3]; 47.8 µM in experiment [4]; 59.2 µM in experiment [5]; over 100 µM in [6]. Also, the TGI in experiment [7] was 27.9 µM; in experiment [8], over 100 µM; in experiment [9] it was over 100 µM; in experiment [10], over 100 µM; in experiment [11] it was over 100 µM.

As for `O=C1CSC(c2ccc([N+](=O)[O-])cc2)N1c1ccc(-c2ccc(-n3c(-c4ccccc4)nc4ccccc4c3=O)cc2)cc1` (configuration not stated), the TGI in experiment [1], in experiment [2], in [3], in experiment [4], in [5] and in experiment [6] was over 100 µM in each case. Also, the TGI in experiment [7], in experiment [8], in experiment [9], in experiment [10] and in experiment [11] was over 100 µM each time.

Take `Cc1ccc(-c2cc[n+]3c(n2)oc2ccccc23)cc1`: the TGI is 99.4 µM in experiment [1]; 76.6 µM in experiment [2]; over 100 µM in experiment [3]; 84.5 µM in experiment [4]; 54.4 µM in experiment [5]; over 100 µM in experiment [6]. The TGI in experiment [7] was 58.6 µM; in experiment [8] it was 46.6 µM; in [9] it was over 100 µM; in [10] it was over 100 µM; in experiment [11], 97.7 µM.

As for `CCCCc1ccc(Nc2nc(Cl)c3c(ncn3C3CC(Oc4ccc(C)cc4)C(COc4ccc(C)cc4)O3)n2)cc1` (configuration not stated), the TGI in [1], in [2], in [3], in experiment [4], in [5] and in experiment [6] was over 100 µM in each case. The TGI in experiment [7], in [8], in [9], in [10] and in experiment [11] was over 100 µM in each case.

With `C/C=C(\C)C(=O)O[C@@H]1CC(C)(C)CC2C3=CCC4[C@]56CC[C@](O)(OC5)C(C)(C)C6CC[C@@]4(C)C3(C)CC[C@]21C(=O)O` (some centres not stated), the TGI in experiment [1], in experiment [2], in experiment [3], in [4], in experiment [5] and in experiment [6] was over 100 µM in each case. Further, the TGI in experiment [7], in experiment [8], in experiment [9], in [10] and in [11] was over 100 µM in each case.
